From patent publication US20120220564A1, “SELECTIVE CALCIUM CHANNEL MODULATORS” (Zalicus Pharmaceuticals Ltd., priority 2009, published 2012)
Blank lines part the entries; values can stand above or below the compound they belong to.

How the values were obtained:
[1] = molecular target: T1, α1G (CaV 3.1) (Homo sapiens, UniProt O43497); test: T-type calcium channel block, whole cell patch clamp; type: cell-based; settings: HEK cells, mainly non-inactivated protocol; values above 10,000 nM represented as 10000
T1 construct: expressed in transfected cells; host or cells: HEK 293
Description: (§1) T-type calcium channel blocking activity was assayed in human embryonic kidney cells, HEK 293 (Invitrogen), stably transfected with the T-type calcium channel subunits. Briefly, cells were cultured in Dulbecco's modified eagle medium (DMEM) supplemented with 10% fetal bovine serum, 200 U/ml penicillin, and 0.2 mg/mL streptomycin at 37° C. with 5% CO2. At 85% confluency, cells were split with 0.25% trypsin/1 mM EDTA and plated at 10% confluency on glass coverslips. At 12 hours, the medium was replaced, and the cells stably transfected using a standard calcium phosphate protocol and the appropriate calcium channel cDNA's. Fresh DMEM was supplied, and the cells transferred to 28° C./5% CO2. Cells were incubated for 1 to 2 days prior to whole cell recording.
(§2) Standard patch-clamp techniques were employed to identify blockers of T-type currents. Briefly, previously described HEK cell lines stably expressing human α1G, α1H and α1I T-type channels were used for all the recordings (passage #: 4-20, 37° C., 5% CO2). Whole cell patch clamp experiments were performed using an Axopatch 200B amplifier (Axon Instruments, Burlingame, Calif.) linked to a personal computer equipped with pCLAMP software. Data were analyzed using Clampfit (Axon Instruments) and SigmaPlot 4.0 (Jandel Scientific). To obtain T-type currents, plastic dishes containing semi-confluent cells were positioned on the stage of a ZEISS AXIOVERT S100 microscope after replacing the culture medium with external solution (Table 2). Whole-cell patches were obtained using pipettes (borosilicate glass with filament, O.D.: 1.5 mm, I.D.: 0.86 mm, 10 cm length), fabricated on a SUTTER P-97 puller with resistance values of ˜5 MΩ (Table 3).
(§3) T-type currents were reliably obtained by using two voltage protocols:
(§4) In the non-inactivating protocol, the holding potential is set at −110 mV and with a pre-pulse at −100 mV for 1 second prior to the test pulse at −40 mV for 50 ms. In the inactivation protocol, the pre-pulse is at approximately −85 mV for 1 second, which inactivates about 15% of the T-type channels (Scheme 1).
(§5) Test compounds were dissolved in external solution, 0.1-0.01% DMSO. After ˜10 minutes rest, they were applied by gravity close to the cell using a WPI microfil tubing. The “non-inactivated” pre-pulse was used to examine the resting block of a compound. The “inactivated” protocol was employed to study voltage-dependent block. However, the initial data shown below were mainly obtained using the non-inactivated protocol only. IC50 values are shown for various compounds of the invention in Table 4. […] In Table 4, empty cells indicate that inhibition by the compound was not detected.

[2] = molecular target: T2, α1H (CaV 3.2) (Homo sapiens, UniProt O95180); test: as above; type: cell-based; settings: HEK cells, mainly non-inactivated protocol; values above 10,000 nM represented as 10000
T2 construct: expressed in transfected cells; host or cells: HEK 293
Description: as §1, §2, §3, §4, §5

[3] = tested on: 6 Hz psychomotor seizure; test: 6 Hz psychomotor seizure model of partial epilepsy; type: in vivo, mice; set-up: concentration or dose not given beside the values
Description: Compounds can also be evaluated for the protection against seizures induced by a 6 Hz, 0.2 ms rectangular pulse width of 3 s duration, at a stimulus intensity of 32 mA (CC97) applied to the cornea of male CF1 mice (20-30 g) according to procedures described by Barton et al, “Pharmacological Characterization of the 6 Hz Psychomotor Seizure Model of Partial Epilepsy,” Epilepsy Res. 47(3):217-27 (2001). Seizures are characterised by the expression of one or more of the following behaviours: stun, forelimb clonus, twitching of the vibrissae and Straub-tail immediately following electrical stimulation.

[4] = tested on: minimal muscular or neurological impairment (rotarod); test: Mouse rotarod assay; type: in vivo, mice
Description: To assess a compound's undesirable side effects (toxicity), animals can be monitored for overt signs of impaired neurological or muscular function. In mice, the rotarod procedure (Dunham and Miya, J. Am. Pharmacol. Assoc. 46:208-209 (1957)) is used to disclose minimal muscular or neurological impairment (MMI). When a mouse is placed on a rod that rotates at a speed of 6 rpm, the animal can maintain its equilibrium for long periods of time. The animal is considered toxic if it falls off this rotating rod three times during a 1-min period.

T1 sequence (O43497 whole entry): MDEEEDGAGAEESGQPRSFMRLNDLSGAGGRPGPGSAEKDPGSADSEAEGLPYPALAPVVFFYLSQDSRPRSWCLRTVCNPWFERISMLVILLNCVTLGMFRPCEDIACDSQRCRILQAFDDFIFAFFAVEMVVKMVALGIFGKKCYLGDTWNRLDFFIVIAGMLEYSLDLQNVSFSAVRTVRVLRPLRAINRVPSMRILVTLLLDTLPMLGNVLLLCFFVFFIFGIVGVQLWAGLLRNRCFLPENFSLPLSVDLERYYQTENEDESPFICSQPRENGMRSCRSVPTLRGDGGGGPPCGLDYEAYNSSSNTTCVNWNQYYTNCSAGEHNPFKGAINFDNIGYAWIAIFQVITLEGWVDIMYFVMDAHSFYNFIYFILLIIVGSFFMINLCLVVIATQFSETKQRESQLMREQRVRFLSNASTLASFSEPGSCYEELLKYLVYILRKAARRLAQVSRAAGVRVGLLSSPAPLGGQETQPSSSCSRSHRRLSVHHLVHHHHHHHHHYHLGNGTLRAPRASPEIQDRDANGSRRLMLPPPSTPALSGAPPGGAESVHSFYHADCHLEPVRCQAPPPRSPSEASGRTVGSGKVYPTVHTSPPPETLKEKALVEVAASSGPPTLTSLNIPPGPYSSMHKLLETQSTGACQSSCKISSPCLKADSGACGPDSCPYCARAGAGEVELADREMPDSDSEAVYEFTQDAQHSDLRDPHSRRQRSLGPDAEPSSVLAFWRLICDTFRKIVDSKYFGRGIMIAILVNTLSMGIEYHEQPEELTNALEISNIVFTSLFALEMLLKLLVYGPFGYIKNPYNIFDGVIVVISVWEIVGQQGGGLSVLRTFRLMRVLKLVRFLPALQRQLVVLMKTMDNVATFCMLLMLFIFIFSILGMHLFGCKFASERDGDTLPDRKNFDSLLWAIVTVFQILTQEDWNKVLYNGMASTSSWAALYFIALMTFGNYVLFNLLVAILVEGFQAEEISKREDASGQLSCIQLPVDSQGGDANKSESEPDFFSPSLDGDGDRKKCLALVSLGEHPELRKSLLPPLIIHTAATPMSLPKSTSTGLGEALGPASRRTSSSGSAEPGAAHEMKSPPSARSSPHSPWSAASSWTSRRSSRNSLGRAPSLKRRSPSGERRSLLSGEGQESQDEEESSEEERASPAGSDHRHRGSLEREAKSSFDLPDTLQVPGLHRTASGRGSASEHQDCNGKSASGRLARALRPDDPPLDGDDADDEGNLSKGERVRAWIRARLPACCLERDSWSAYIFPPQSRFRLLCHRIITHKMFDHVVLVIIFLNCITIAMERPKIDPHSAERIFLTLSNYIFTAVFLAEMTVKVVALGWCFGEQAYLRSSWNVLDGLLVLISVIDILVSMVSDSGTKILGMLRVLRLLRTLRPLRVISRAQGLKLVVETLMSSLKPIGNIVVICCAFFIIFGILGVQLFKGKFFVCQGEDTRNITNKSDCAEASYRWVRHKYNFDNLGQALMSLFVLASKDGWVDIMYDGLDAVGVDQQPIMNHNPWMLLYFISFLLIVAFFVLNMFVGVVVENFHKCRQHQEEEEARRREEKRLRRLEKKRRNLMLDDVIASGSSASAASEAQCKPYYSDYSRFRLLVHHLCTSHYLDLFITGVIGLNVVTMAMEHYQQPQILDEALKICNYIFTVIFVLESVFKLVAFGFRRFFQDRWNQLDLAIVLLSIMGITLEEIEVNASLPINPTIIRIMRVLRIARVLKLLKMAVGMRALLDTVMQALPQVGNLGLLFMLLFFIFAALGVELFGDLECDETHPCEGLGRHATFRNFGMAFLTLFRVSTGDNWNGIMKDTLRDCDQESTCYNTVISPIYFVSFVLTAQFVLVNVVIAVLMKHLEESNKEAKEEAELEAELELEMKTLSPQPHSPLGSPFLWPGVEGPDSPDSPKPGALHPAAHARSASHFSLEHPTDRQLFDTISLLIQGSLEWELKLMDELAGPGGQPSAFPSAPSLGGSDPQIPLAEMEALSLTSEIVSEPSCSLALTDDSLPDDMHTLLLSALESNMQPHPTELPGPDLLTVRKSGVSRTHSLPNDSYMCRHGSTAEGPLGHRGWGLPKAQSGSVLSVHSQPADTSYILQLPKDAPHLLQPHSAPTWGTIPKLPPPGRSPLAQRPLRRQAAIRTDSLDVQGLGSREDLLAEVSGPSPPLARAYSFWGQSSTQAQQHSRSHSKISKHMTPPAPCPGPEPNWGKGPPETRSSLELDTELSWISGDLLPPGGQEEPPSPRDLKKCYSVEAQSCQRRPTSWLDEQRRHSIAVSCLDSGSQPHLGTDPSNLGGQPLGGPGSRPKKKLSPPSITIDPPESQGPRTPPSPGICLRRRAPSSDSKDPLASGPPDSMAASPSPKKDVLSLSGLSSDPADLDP
T2 sequence (O95180 whole entry): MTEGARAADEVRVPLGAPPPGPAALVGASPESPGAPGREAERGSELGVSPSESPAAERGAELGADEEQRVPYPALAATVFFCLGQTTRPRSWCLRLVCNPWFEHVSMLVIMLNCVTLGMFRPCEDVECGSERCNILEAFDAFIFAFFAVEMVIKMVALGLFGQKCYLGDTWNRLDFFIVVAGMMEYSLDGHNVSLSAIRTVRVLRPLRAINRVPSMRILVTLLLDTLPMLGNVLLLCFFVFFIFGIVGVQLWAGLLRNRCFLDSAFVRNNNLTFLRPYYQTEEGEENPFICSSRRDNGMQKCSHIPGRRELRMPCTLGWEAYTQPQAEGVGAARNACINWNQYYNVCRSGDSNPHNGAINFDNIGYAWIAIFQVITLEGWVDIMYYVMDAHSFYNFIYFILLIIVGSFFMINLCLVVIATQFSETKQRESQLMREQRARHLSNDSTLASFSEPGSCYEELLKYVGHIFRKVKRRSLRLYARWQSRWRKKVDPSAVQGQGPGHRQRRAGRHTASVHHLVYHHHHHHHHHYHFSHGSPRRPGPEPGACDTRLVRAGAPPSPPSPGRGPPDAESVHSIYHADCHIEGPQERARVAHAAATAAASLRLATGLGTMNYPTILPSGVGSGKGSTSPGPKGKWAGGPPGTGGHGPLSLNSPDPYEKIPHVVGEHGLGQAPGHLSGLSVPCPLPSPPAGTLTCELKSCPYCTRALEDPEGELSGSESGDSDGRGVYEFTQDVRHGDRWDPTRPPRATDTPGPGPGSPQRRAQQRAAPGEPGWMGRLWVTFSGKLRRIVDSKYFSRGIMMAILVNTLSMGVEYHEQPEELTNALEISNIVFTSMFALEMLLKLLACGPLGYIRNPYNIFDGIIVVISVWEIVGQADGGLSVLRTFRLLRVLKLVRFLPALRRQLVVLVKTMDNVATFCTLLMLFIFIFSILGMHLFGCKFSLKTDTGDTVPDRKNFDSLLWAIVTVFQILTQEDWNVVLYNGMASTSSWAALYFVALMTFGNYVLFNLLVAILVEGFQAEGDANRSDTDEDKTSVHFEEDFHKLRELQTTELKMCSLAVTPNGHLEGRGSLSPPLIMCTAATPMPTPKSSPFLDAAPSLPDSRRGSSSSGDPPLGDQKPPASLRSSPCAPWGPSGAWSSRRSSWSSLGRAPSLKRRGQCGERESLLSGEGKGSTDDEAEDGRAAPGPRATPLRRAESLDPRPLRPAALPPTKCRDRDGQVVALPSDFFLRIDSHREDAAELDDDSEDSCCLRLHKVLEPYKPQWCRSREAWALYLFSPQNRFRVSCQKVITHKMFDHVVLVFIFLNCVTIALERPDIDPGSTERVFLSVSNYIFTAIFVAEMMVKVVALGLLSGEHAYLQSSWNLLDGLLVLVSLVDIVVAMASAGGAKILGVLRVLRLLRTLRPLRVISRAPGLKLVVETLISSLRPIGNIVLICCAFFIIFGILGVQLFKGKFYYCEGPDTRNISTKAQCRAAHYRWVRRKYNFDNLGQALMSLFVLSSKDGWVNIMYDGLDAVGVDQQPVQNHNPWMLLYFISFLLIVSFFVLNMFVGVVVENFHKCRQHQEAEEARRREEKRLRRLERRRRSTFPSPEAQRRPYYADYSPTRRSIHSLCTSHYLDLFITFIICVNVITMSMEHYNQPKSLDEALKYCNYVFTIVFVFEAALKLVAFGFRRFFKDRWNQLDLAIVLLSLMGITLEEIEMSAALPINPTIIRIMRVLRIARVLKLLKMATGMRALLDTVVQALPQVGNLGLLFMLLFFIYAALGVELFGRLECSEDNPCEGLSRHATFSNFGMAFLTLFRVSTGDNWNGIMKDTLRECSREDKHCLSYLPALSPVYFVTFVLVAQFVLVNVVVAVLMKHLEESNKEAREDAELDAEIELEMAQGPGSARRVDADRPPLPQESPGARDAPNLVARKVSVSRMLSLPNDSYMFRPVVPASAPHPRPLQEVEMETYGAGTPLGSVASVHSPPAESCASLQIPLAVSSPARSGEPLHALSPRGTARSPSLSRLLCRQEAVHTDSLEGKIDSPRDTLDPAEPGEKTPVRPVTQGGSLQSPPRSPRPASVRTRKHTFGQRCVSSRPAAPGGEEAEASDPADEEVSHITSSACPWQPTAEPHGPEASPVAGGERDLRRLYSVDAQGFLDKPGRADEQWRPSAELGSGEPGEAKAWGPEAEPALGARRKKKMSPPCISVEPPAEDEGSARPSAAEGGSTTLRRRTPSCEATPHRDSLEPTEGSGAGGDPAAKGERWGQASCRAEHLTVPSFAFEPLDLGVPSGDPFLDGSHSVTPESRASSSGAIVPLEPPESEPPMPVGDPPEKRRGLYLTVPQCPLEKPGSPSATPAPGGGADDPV

IC50 [1]: > 10 µM | IC50 [2]: 0.1 µM
Compound: N[C@H]1CCCC[C@H]1C(=O)N1CCC(CC(=O)Nc2cc(C(F)(F)F)cc(C(F)(F)F)c2)CC1 (racemic) [Compound 5, cis-2-(1-(2-aminocyclohexanecarbonyl)piperidin-4-yl)-N-(3,5-bis(trifluoromethyl)phenyl)acetamide]

IC50 [2]: > 10 µM
Compound: N[C@H]1CCCC[C@@H]1C(=O)N1CCC(CC(=O)Nc2ccc(F)cc2)CC1 (racemic) [Compound 11, trans-2-(1-(2-aminocyclohexanecarbonyl)piperidin-4-yl)-N-(4-fluorophenyl)acetamide]

IC50 [1]: > 10 µM | IC50 [2]: 2.67 µM
Compound: N[C@H]1CCCC[C@@H]1C(=O)N1CCC(CC(=O)Nc2cccc(C(F)(F)F)c2)CC1 (racemic) [Compound 13, trans-2-(1-(2-aminocyclohexanecarbonyl)piperidin-4-yl)-N-(3-(trifluoromethyl)phenyl)acetamide]

IC50 [2]: > 10 µM
Compound: N[C@H]1CCCC[C@@H]1C(=O)N1CCC(CC(=O)Nc2cc(F)c(F)cc2F)CC1 (racemic) [Compound 14, trans-2-(1-(2-aminocyclohexanecarbonyl)piperidin-4-yl)-N-(2,4,5-trifluorophenyl)acetamide]

IC50 [1]: > 10 µM | IC50 [2]: 0.69 µM
Compound: N[C@H]1CCCC[C@@H]1C(=O)N1CCC(CC(=O)Nc2cc(Cl)cc(Cl)c2)CC1 (racemic) [Compound 17, trans-2-(1-(2-aminocyclohexanecarbonyl)piperidin-4-yl)-N-(3,5-dichlorophenyl)acetamide]

IC50 [2]: 2.73 µM
Compound: N[C@H]1CCCC[C@@H]1C(=O)N1CCC(CC(=O)Nc2ccc(OC(F)(F)F)cc2)CC1 (racemic) [Compound 18, trans-2-(1-(2-aminocyclohexanecarbonyl)piperidin-4-yl)-N-(4-(trifluoromethoxy)phenyl)acetamide]

IC50 [1]: > 10 µM | IC50 [2]: 0.28 µM
Compound: N[C@H]1CCCC[C@@H]1C(=O)N1CCC(CC(=O)Nc2cc(Br)cc(C(F)(F)F)c2)CC1 (racemic) [Compound 19, trans-2-(1-(2-aminocyclohexanecarbonyl)piperidin-4-yl)-N-(3-bromo-5-(trifluoromethyl)phenyl)acetamide]

IC50 [2]: 1.93 µM
Compound: N[C@H]1CCCC[C@H]1C(=O)N1CCC(CNC(=O)c2cc(C(F)(F)F)cc(C(F)(F)F)c2)CC1 (racemic) [Compound 49]

IC50 [2]: 0.82 µM
Compound: N[C@@H]1CCCC[C@@H]1C(=O)N1CCC(O)(CC(=O)Nc2cc(C(F)(F)F)cc(C(F)(F)F)c2)CC1 (racemic) [Compound 52, cis-2-(1-(2-aminocyclohexanecarbonyl)-4-hydroxypiperidin-4-yl)-N-(3,5-bis(trifluoromethyl)phenyl)acetamide]

IC50 [2]: 0.25 µM
Compound: N[C@@H]1CCCC[C@H]1C(=O)N1CCC(CNC(=O)Nc2cc(C(F)(F)F)cc(C(F)(F)F)c2)CC1 (racemic) [Compound 57]

IC50 [2]: 0.25 µM
Compound: N[C@@H]1CCCC[C@@H]1C(=O)N1CCC(CNC(=O)Nc2cc(C(F)(F)F)cc(C(F)(F)F)c2)CC1 (racemic) [Compound 58]

IC50 [2]: 0.27 µM
Compound: N[C@@H]1CCCC[C@H]1C(=O)N1CCC(NC(=O)Nc2cc(C(F)(F)F)cc(C(F)(F)F)c2)CC1 (racemic) [Compound 62, trans-2-(1-(2-aminocyclohexanecarbonyl)piperidin-4-yl)-3-(3,5-bis(trifiuoromethyl)phenyl)urea]

IC50 [2]: 0.43 µM
Compound: N[C@@H]1CCCC[C@@H]1C(=O)N1CCC(NC(=O)Nc2cc(C(F)(F)F)cc(C(F)(F)F)c2)CC1 (racemic) [Compound 63, cis-2-(1-(2-aminocyclohexanecarbonyl)piperidin-4-yl)-3-(3,5-bis(trifluoromethyl)phenyl)urea]

IC50 [2]: 0.49 µM
Compound: N[C@@H]1CCCC[C@H]1C(=O)N1CCC(O)(CC(=O)Nc2cc(C(F)(F)F)cc(C(F)(F)F)c2)CC1 (relative stereo) [Compound 51, trans-2-(1-(2-aminocyclohexanecarbonyl)-4-hydroxypiperidin-4-yl)-N-(3,5-bis(trifluoromethyl)phenyl)acetamide]

IC50 [2]: 0.52 µM
Compound: O=C(CC1(O)CCN(C(=O)[C@@H]2CCCCN2)CC1)Nc1cc(C(F)(F)F)cc(C(F)(F)F)c1 [Compound 50, (S)-N-(3,5-bis(trifluoromethyl)phenyl)-2-(4-hydroxy-1-(piperidine-2-carbonyl)piperidin-4-yl)acetamide]

IC50 [2]: 1.86 µM
Compound: O=C(CC1(O)CCN(C(=O)[C@H]2CCCCN2)CC1)Nc1cc(C(F)(F)F)cc(C(F)(F)F)c1 [Compound 53, (R)-N-(3,5-bis(trifluoromethyl)phenyl)-2-(4-hydroxy-1-(piperidine-2-carbonyl)piperidin-4-yl)acetamide]

IC50 [2]: 0.03 µM
Compound: NC1(CC(=O)N2CCC(CNC(=O)Nc3cc(C(F)(F)F)cc(C(F)(F)F)c3)CC2)CCCCC1 [Compound 59, 1-((1-(2-(1-aminocyclohexyl)acetyl)piperidin-4-yl)methyl)-3-(3,5-bis(trifluoromethyl)phenyl)urea]
Epilepsy 6 Hz (% Protected) ([3]; 0.25 hr): 25% | Epilepsy 6 Hz (% Protected) ([3]; 0.5 hr): 50% | Epilepsy 6 Hz (% Protected) ([3]; 1 hr): 100% | Rotarod Assay (% impaired) ([4]; 0.25 hr): 0% | Rotarod Assay (% impaired) ([4]; 0.5 hr): 25% | Rotarod Assay (% impaired) ([4]; 1 hr): 75% | Rotarod Assay (% impaired) ([4]; 2 hr): 100% | Rotarod Assay (% impaired) ([4]; 4 hr): 100%

IC50 [2]: 0.95 µM
Compound: O=C(Nc1cc(C(F)(F)F)cc(C(F)(F)F)c1)NC1CCN(C(=O)[C@@H]2CCCCN2)CC1 [Compound 60, (S)-1-(3,5-bis(trifluoromethyl)phenyl)-3-(1-(piperidine-2-carbonyl)piperidin-4-yl)urea]

IC50 [2]: 0.69 µM
Compound: O=C(Nc1cc(C(F)(F)F)cc(C(F)(F)F)c1)NC1CCN(C(=O)[C@H]2CCCCN2)CC1 [Compound 61, (R)-1-(3,5-bis(trifluoromethyl)phenyl)-3-(1-(piperidine-2-carbonyl)piperidin-4-yl)urea]

IC50 [2]: 0.36 µM
Compound: NC1(CC(=O)N2CCC(NC(=O)Nc3cc(C(F)(F)F)cc(C(F)(F)F)c3)CC2)CCCCC1 [Compound 64, 1-(1-(2-(1-aminocyclohexyl)acetyl)piperidin-4-yl)-3-(3,5-bis(trifluoromethyl)phenyl)urea]

Compound: CC1(CC(=O)Nc2cc(C(F)(F)F)cc(C(F)(F)F)c2)CCN(C(=O)[C@H]2CCCCN2)CC1 [Compound 68]
Epilepsy 6 Hz (% Protected) ([3]; 0.25 hr): 50% | Epilepsy 6 Hz (% Protected) ([3]; 0.5 hr): 75% | Epilepsy 6 Hz (% Protected) ([3]; 1 hr): 100% | Epilepsy 6 Hz (% Protected) ([3]; 2 hr): 50% | Epilepsy 6 Hz (% Protected) ([3]; 4 hr): 0%

Compound: O=C(Nc1cc(C(F)(F)F)cc(C(F)(F)F)c1)OCC1CCN(C(=O)[C@H]2CCCCN2)CC1 [Compound 69]
Epilepsy 6 Hz (% Protected) ([3]; 0.25 hr): 75% | Epilepsy 6 Hz (% Protected) ([3]; 0.5 hr): 75% | Epilepsy 6 Hz (% Protected) ([3]; 1 hr): 50% | Epilepsy 6 Hz (% Protected) ([3]; 2 hr): 100% | Epilepsy 6 Hz (% Protected) ([3]; 4 hr): 33% | Rotarod Assay (% impaired) ([4]; 0.25 hr): 0% | Rotarod Assay (% impaired) ([4]; 0.5 hr): 50% | Rotarod Assay (% impaired) ([4]; 1 hr): 50% | Rotarod Assay (% impaired) ([4]; 2 hr): 100% | Rotarod Assay (% impaired) ([4]; 4 hr): 100%

Compound: N[C@@H]1CCCC[C@@H]1C(=O)N1CCC(CC(=O)Nc2cc(C(F)(F)F)cc(C(F)(F)F)c2)CC1 [Compound 73]
Epilepsy 6 Hz (% Protected) ([3]; 0.25 hr): 100% | Epilepsy 6 Hz (% Protected) ([3]; 0.5 hr): 100% | Epilepsy 6 Hz (% Protected) ([3]; 1 hr): 100% | Epilepsy 6 Hz (% Protected) ([3]; 4 hr): 100% | Rotarod Assay (% impaired) ([4]; 0.25 hr): 100% | Rotarod Assay (% impaired) ([4]; 0.5 hr): 100% | Rotarod Assay (% impaired) ([4]; 1 hr): 100% | Rotarod Assay (% impaired) ([4]; 2 hr): 100% | Rotarod Assay (% impaired) ([4]; 4 hr): 75%
